Experimental data published in ChEMBL document CHEMBL4665754, “Discovery of a coumarin derivative as Nrf2 activator mitigating oxidative stress and fibrosis in mesangial cells under high glucose” (Bioorg Med Chem Lett, 2020).
Activity calls are given as the source filed them. The rule behind the calls is not given here.

What was measured:
[1] = biological target: T1, Keap1/Nrf2 (Homo sapiens) (UniProt Q16236+Q14145); assay: Disruption of interaction between Nrf2/Keap1 (unknown origin) in mesangial cells assessed as reduction in high glucose-induced collagen IV secretion at 10 uM by ELISA; type: cell-based; details: Mesangial cell
[2] = biological target: T1, Keap1/Nrf2 (Homo sapiens); assay: Disruption of interaction between Nrf2/Keap1 (unknown origin) in mesangial cells assessed as reduction in high glucose-induced intracellular MDA level at 10 uM; type: cell-based; details: Mesangial cell
[3] = Cytotoxicity against Mesangial cell (unknown origin) at 0.01 to 100 uM by CCK8 assay; type: tissue-based; details: dose 0.01-100 µM
Mesangial cell [4] = assay: Inhibition of glucose-induced cell proliferation in Mesangial cell (unknown origin) at 10 uM by CCK8 assay; type: functional, tissue-based
[5] = biological target: T1, Keap1/Nrf2 (Homo sapiens); assay: Disruption of interaction between Nrf2/Keap1 (unknown origin) in mesangial cells assessed as reduction in high glucose-induced intracellular MDA level at 5 to 10 uM; type: cell-based; details: Mesangial cell, dose microM 5-10
[6] = biological target: T2, Nuclear factor erythroid 2-related factor 2 (Homo sapiens) (UniProt Q16236); assay: Activation of Nrf2 (unknown origin) in mesangial cell assessed as increase in transcription ability of Nrf2 binding to ARE by measuring increase luciferase activity at 5 to 10 uM in presence of high glucose by luciferase reporter gene assay; type: tissue-based; details: dose microM 5-10
T2 sequence (whole entry): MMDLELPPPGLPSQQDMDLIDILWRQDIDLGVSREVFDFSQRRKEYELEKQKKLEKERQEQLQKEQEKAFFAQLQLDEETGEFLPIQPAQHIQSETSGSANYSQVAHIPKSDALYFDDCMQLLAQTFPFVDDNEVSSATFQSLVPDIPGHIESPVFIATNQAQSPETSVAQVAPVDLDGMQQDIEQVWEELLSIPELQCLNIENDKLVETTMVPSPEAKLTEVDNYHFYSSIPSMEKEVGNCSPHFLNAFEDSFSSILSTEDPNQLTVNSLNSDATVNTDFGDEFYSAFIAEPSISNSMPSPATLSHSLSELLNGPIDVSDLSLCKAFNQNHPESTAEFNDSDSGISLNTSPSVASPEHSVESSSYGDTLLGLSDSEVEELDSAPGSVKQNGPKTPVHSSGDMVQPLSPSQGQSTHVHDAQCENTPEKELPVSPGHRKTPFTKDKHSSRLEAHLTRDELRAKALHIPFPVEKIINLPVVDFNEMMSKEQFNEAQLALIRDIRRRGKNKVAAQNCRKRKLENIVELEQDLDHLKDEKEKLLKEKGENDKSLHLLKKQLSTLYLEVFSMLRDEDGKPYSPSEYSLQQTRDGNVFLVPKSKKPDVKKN

[7] = biological target: T2, Nuclear factor erythroid 2-related factor 2 (Homo sapiens); assay: Activation of Nrf2 (unknown origin) in mesangial cell assessed as increase in translocation of Nrf2 into nuclei from cytosol at 5 to 10 uM in presence of high glucose by Western blot based densitometric assay; type: tissue-based; details: dose microM 5-10
[8] = biological target: T1, Keap1/Nrf2 (Homo sapiens); assay: Disruption of interaction between Nrf2/Keap1 (unknown origin) in mesangial cells assessed as reduction in high glucose-induced fibronectin secretion at 10 uM in presence of 10 uM ML385 by ELISA; type: cell-based; details: Mesangial cell
[9] = biological target: T1, Keap1/Nrf2 (Homo sapiens); assay: Disruption of interaction between Nrf2/Keap1 (unknown origin) in mesangial cell assessed as increase of Nrf2 immunoprecipitate at 10 uM in presence of high glucose by Co-immunoprecipitation assay; type: tissue-based
[10] = biological target: T1, Keap1/Nrf2 (Homo sapiens); assay: Disruption of interaction between Nrf2/Keap1 (unknown origin) in mesangial cell assessed as decrease in Keap1 immunoprecipitate at 10 uM in presence of high glucose by Co-immunoprecipitation assay; type: tissue-based
Mesangial cell [11] = assay: Inhibition of glucose-induced cell proliferation in Mesangial cell (unknown origin) at 5 and 10 uM by CCK8 assay; type: functional, tissue-based; details: dose microM 5-10
[12] = biological target: T1, Keap1/Nrf2 (Homo sapiens); assay: Disruption of interaction between Nrf2/Keap1 (unknown origin) in mesangial cells assessed as reduction in high glucose-induced intracellular ROS production at 10 uM in presence of 10 uM ML385 by DCFH-DA assay; type: cell-based; details: Mesangial cell
[13] = biological target: T2, Nuclear factor erythroid 2-related factor 2 (Homo sapiens); assay: Activation of Nrf2 (unknown origin) in mesangial cell at 5 and 10 uM in presence of high glucose by Western blot based densitometric assay; type: tissue-based; details: dose microM 5-10
[14] = biological target: T1, Keap1/Nrf2 (Homo sapiens); assay: Disruption of interaction between Nrf2/Keap1 (unknown origin) in mesangial cells assessed as reduction in high glucose-induced intracellular MDA level at 10 uM in presence of 10 uM ML385; type: cell-based; details: Mesangial cell
[15] = biological target: T1, Keap1/Nrf2 (Homo sapiens); assay: Disruption of interaction between Nrf2/Keap1 (unknown origin) in mesangial cells assessed as reduction in high glucose-induced intracellular ROS production at 5 to 10 uM by DCFH-DA assay; type: cell-based; details: Mesangial cell, dose microM 5-10
[16] = biological target: T1, Keap1/Nrf2 (Homo sapiens); assay: Disruption of interaction between Nrf2/Keap1 (unknown origin) in mesangial cells assessed as reduction in high glucose-induced collagen IV secretion at 5 to 10 uM by ELISA; type: cell-based; details: Mesangial cell, dose microM 5-10
[17] = biological target: T2, Nuclear factor erythroid 2-related factor 2 (Homo sapiens); assay: Activation of Nrf2 (unknown origin) in mesangial cell assessed as strong red fluorescence at 5 and 10 uM in presence of high glucose by immunofluorescence staining based assay; type: tissue-based; details: dose microM 5-10
[18] = biological target: T1, Keap1/Nrf2 (Homo sapiens); assay: Disruption of interaction between Nrf2/Keap1 (unknown origin) in mesangial cells assessed as reduction in high glucose-induced collagen IV secretion at 10 uM in presence of 10 uM ML385 by ELISA; type: cell-based; details: Mesangial cell
[19] = biological target: T1, Keap1/Nrf2 (Homo sapiens); assay: Disruption of interaction between Nrf2/Keap1 (unknown origin) in mesangial cells assessed as reduction in high glucose-induced fibronectin secretion at 5 to 10 uM by ELISA; type: cell-based; details: Mesangial cell, dose microM 5-10

T1 sequence (Q14145 whole entry, looked up, one chain of several): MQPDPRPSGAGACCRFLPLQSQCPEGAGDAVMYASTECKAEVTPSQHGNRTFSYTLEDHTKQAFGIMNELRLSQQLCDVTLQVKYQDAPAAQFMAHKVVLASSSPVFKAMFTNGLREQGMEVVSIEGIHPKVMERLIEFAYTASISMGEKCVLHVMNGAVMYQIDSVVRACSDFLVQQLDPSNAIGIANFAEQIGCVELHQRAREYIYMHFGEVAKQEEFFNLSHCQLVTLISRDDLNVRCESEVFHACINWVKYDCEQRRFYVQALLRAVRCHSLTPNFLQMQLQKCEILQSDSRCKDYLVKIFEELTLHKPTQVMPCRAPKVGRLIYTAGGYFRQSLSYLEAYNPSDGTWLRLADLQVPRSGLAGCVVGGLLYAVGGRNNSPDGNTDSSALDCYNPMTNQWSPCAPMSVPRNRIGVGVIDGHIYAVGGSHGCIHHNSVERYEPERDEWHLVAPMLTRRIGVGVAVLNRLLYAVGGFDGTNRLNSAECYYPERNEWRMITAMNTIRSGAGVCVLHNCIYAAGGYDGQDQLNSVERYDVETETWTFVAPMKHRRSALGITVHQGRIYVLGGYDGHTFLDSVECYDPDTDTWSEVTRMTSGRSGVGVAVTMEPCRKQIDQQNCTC

| inhibition [1] | inhibition [2] | inhibition [5] | Activity [6] | Activity [7] | inhibition [8] | Activity [9] | Activity [10] | inhibition [12] | Activity [13] | inhibition [14] | inhibition [15] | inhibition [16] | Activity [17] | inhibition [18] | inhibition [19] | SMILES | Activity [3] | inhibition (Mesangial cell [4]) | inhibition (Mesangial cell [11]) |
| --- | --- | --- | --- | --- | --- | --- | --- | --- | --- | --- | --- | --- | --- | --- | --- | --- | --- | --- | --- |
| Active | Active | – | – | – | – | – | – | – | – | – | – | – | – | – | – | O=c1ccc2ccc(Oc3cc4ccc(=O)oc4cc3O)cc2o1 | Non-Toxic | Active | – |
| Active | Active | – | – | – | – | – | – | – | – | – | – | – | – | – | – | COc1cc2cc(Oc3ccc4ccc(=O)oc4c3)c(=O)oc2cc1O [DAPHNORETIN] | Non-Toxic | Active | – |
| – | – | Active | Active | Active | inactive | Active | Active | inactive | Active | inactive | Active | Active | Active | inactive | Active | COc1cc2cc(Oc3ccc4ccc(=O)oc4c3)c(=O)oc2cc1O[C@@H]1O[C@H](CO)[C@@H](O)[C@H](O)[C@H]1O [DAPHNORIN] | Non-Toxic | – | Active |
| Active | Active | – | – | – | – | – | – | – | – | – | – | – | – | – | – | O=c1ccc2ccc(Oc3cc4ccc(O)cc4oc3=O)cc2o1 [EDGEWORIN] | Non-Toxic | Active | – |
